What all share (format): biochemical
Experiment [1] has as its target T1, WT BTK (Homo sapiens, UniProt Q06187). The experiment in a line: Caliper-based kinase assay, WT BTK. Particulars: 0.5 nM enzyme, ATP 16 μM, room temperature 3 h; read-out: WT BTK IC50 (nM) (irreversible inhibition). On the procedure:
(§1) A Caliper-based kinase assay (Caliper Life Sciences, Hopkinton, Mass.) was used to measure inhibition of WT and […] Btk kinase activity of a compound of the present disclosure. […] The reaction was then terminated with EDTA, final concentration 20 mM and the phosphorylated reaction product was quantified on a Caliper Desktop Profiler (Caliper LabChip 3000).

In experiment [2] the target is T1, WT BTK. The experiment in a line: In vitro dialysis assay (irreversibility assay), WT BTK. Particulars: reversible or irreversible/covalent inhibition after 24 h dialysis. Here is the method: The compound-enzyme complex was dialyzed against the same buffer supplemented with 40 mM ATP for 24 hr. Cumulative dialysis factor>160,000×. After dialysis, the BTK activity was measured in the presence […] and 1 mM substrate peptide and compared to that in non-dialyzed samples. Assay buffer: 100 mM HEPES, pH7.5; […]; 5 mM MgCl2; 1 mM DTT. In this study, Ibrutiib (a FDA approved irreversible BTK inhibitor) was used as a positive control and Saurosporine (a reversible BTK inhibitor) was used as a negative control.

Experiment [3] concerns the target C481S Btk (Homo sapiens, UniProt Q06187, C481S). The experiment in a line: Caliper-based kinase assay, C481S BTK. Particulars: 0.5 nM enzyme, ATP 16 μM, room temperature 3 h; read-out: C481S BTK IC50 (nM) (reversible inhibition). On the procedure: as §1

The IC50 is the concentration that gives 50% inhibition.

T1 sequence (Q06187 whole entry): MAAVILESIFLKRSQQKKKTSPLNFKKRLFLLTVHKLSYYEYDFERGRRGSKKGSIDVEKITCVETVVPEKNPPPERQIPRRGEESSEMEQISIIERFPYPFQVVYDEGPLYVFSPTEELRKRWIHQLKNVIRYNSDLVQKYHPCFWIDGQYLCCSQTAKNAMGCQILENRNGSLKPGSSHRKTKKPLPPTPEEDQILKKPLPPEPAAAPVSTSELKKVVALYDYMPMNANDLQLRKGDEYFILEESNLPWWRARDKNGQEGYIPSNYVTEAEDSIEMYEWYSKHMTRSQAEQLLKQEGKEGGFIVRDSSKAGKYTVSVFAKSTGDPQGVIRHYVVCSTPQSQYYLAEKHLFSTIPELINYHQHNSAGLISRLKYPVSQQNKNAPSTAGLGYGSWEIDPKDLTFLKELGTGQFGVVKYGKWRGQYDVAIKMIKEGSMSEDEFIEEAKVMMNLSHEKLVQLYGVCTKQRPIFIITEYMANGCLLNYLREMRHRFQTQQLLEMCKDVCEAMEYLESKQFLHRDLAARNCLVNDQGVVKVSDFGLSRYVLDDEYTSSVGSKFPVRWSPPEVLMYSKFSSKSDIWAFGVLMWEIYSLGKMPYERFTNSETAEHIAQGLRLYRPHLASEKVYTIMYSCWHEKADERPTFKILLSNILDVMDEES
C481S Btk, sequence (Q06187 whole entry C481S): as the sequence (Q06187 whole entry) above, with C481S counted along it

On to `C=CC(=O)Nc1cc(Nc2nc(-c3ccnc(N4CCn5c(cc6c5CC(C)(C)C6)C4=O)c3C)cn(C)c2=O)ccc1N1CCN(C2COC2)CC1(C)C` [Example 45, N-[2-[2,2-dimethyl-4-(oxetan-3-yl)piperazin-1-yl]-5-[[6-(2-[4,4-dimethyl-9-oxo-1,10-diazatricyclo[6.4.0.0^[2,6]]dodeca-2(6),7-dien-10-yl]-3-methylpyridin-4-yl)-4-methyl-3-oxopyrazin-2-yl]amino]phenyl]prop-2-enamide], for which the IC50 in experiment [1] worked out at 0.36 nM. Further, the “Conclusion (WT BTK)” value in experiment [2] is recorded as “Irreversible/covalent inhibition”.
On to `C=CC(=O)Nc1cc(Nc2nc(-c3ccnc(N4CCn5c(cc6c5CC(C)(C)C6)C4=O)c3CO)cn(C)c2=O)ccc1C1CN(C2COC2)CC(=O)N1C` (centres unmarked) [Example 42, N-(5-[[6-(2-[4,4-dimethyl-9-oxo-1,10-diazatricyclo[6.4.0.0^[2,6]]dodeca-2(6),7-dien-10-yl]-3-(hydroxymethyl)pyri-din-4-yl)-4-methyl-3-oxopyrazin-2-yl]amino]-2-[1-methyl-4-(oxetan-3-yl)-6-oxopiperazin-2-yl]phenyl)prop-2-enamide], for which the IC50 amounted to 0.24 nM in experiment [1] and 0.3 nM in experiment [3]. Besides, the “Conclusion (WT BTK)” value in experiment [2] was “Irreversible/covalent inhibition”.
As to `C=CC(=O)Nc1cc(Nc2nc(-c3ccnc(N4CCn5c(cc6c5CC(C)(C)C6)C4=O)c3CO)cn(C)c2=O)cc(F)c1N1CCN(C2COC2)C[C@@H]1C` [Example 30, N-(5-[[6-(2-[4,4-dimethyl-9-oxo-1,10-diazatricyclo[6.4.0.0^[2,6]]dodeca-2(6),7-dien-10-yl]-3-(hydroxymethyl)pyridin-4-yl)-4-methyl-3-oxopyrazin-2-yl]amino]-3-fluoro-2-[(2S)-2-methyl-4-(oxetan-3-yl)piperazin-1-yl]phenyl)prop-2-enamide], the concentration for half-maximal inhibition (IC50) in experiment [1] came to 1.58 nM; in experiment [3], 1.6 nM.
Consider `C=CC(=O)Nc1cc(Nc2nc(-c3ccnc(N4CCc5c(sc6c5CCCC6)C4=O)c3C)cn(C)c2=O)ccc1N1CCN(C2CCOCC2)C[C@@H]1C(F)(F)F` [Example 54-R, N-(5-[[4-methyl-6-(3-methyl-2-[6-oxo-8-thia-5-azatricyclo[7.4.0.0^[2,7]]trideca-1(9), 2(7)-dien-5-yl]pyridin-4-yl)-3-oxopyrazin-2-yl]amino]-2-[(2R)-4-(oxan-4-yl)-2-(trifluoromethyl)piperazin-1-yl]phenyl)prop-2-enamide], for which the IC50 in experiment [1] was found to be 2.9 nM. Moreover, the “Conclusion (WT BTK)” value in experiment [2] was “Irreversible/covalent inhibition”.
Taken in the same sequence, the figures for `C=CC(=O)Nc1cc(Nc2nc(-c3ccnc(N4CCn5c(cc6c5CC(C)(C)C6)C4=O)c3C)cn(C)c2=O)ccc1N1CCN(C2CCOCC2)C[C@@H]1C(F)(F)F` [Example 53-R, N-(5-[[6-(2-[4,4-dimethyl-9-oxo-1,10-diazatricyclo[6.4.0.0^[2,6]]dodeca-2(6),7-dien-10-yl]-3-methylpyridin-4-yl)-4-methyl-3-oxopyrazin-2-yl]amino]-2-[(2R)-4-(oxan-4-yl)-2-(trifluoromethyl)piperazin-1-yl]phenyl)prop-2-enamide] were 0.4 nM and “Irreversible/covalent inhibition”.
For the compound `C=CC(=O)Nc1cc(Nc2nc(-c3ccnc(N4CCc5c(sc6c5CCCC6)C4=O)c3CO)cn(C)c2=O)ccc1N1CCN(C2CCOCC2)C[C@@H]1C(F)(F)F` [Example 55-R, N-[5-([6-[3-(hydroxymethyl)-2-[6-oxo-8-thia-5-azatricyclo[7.4.0.0^[2,7]]trideca-1(9), 2(7)-dien-5-yl]pyridin-4-yl]-4-methyl-3-oxopyrazin-2-yl]amino)-2-[(2R)-4-(oxan-4-yl)-2-(trifluoromethyl)piperazin-1-yl]phenyl]prop-2-enamide], in experiment [1], the concentration for half-maximal inhibition (IC50) was found to be 0.24 nM. For the same compound, the “Conclusion (WT BTK)” value in experiment [2] is listed as “Irreversible/covalent inhibition”.
As to `C=CC(=O)Nc1cc(Nc2nc(-c3ccnc(N4CCn5c(cc6c5CC(C)(C)C6)C4=O)c3CO)cn(C)c2=O)ccc1C1CN(C)C(=O)CN1C1COC1` (centres unmarked) [Example 43], the IC50 in experiment [1] amounted to 0.35 nM; in experiment [3], 0.5 nM. Moreover, the “Conclusion (WT BTK)” value in experiment [2] is “Irreversible/covalent inhibition”.
Regarding `C=CC(=O)Nc1cc(Nc2nc(-c3ccnc(N4CCn5c(cc6c5CC(C)(C)C6)C4=O)c3C)cn(C)c2=O)cnc1N1CCN(C2COC2)C[C@@H]1C` [Example 46, N-(5-[[6-(2-[4,4-dimethyl-9-oxo-1,10-diazatricyclo[6.4.0.0^[2,6]]dodeca-2(6),7-dien-10-yl]-3-methylpyridin-4-yl)-4-methyl-3-oxopyrazin-2-yl]amino]-2-[(2S)-2-methyl-4-(oxetan-3-yl)piperazin-1-yl]pyridin-3-yl)prop-2-enamide], the IC50 in experiment [1] came to 0.16 nM. Moreover, in experiment [2], the “Conclusion (WT BTK)” value was “Irreversible/covalent inhibition”.
Taken in the same sequence, the figures for `C=CC(=O)Nc1cc(Nc2nc(-c3ccnc(N4CCn5c(cc6c5CC(C)(C)C6)C4=O)c3CO)cn(C)c2=O)ccc1N1CCN(C2CCOCC2)CC1C` (centres unmarked) [Example 47, N-(5-((6-(2-(7,7-dimethyl-1-oxo-1,3,4,6,7,8-hexahydro-2H-cyclopenta[4,5]pyrrolo[1,2-a]pyrazin-2-yl)-3-(hydroxymethyl)pyridin-4-yl)-4-methyl-3-oxo-3,4-dihydropyrazin-2-yl)amino)-2-(2-methyl-4-(tetrahydro-2H-pyran-4-yl)piperazin-1-yl)phenyl)acrylamide] were 0.12 nM and “Irreversible/covalent inhibition”.
Taken in the same sequence, the figures for `C=CC(=O)Nc1cc(Nc2nc(-c3ccnc(N4CCn5c(cc6c5CC(C)(C)C6)C4=O)c3C)cn(C)c2=O)ccc1N1CCN(C2CCOCC2)C[C@H]1C(F)(F)F` [Example 53-S, N-(5-[[6-(2-[4,4-dimethyl-9-oxo-1,10-diazatricyclo[6.4.0.0^[2,6]]dodeca-2(6),7-dien-10-yl]-3-methylpyridin-4-yl)-4-methyl-3-oxopyrazin-2-yl]amino]-2-[(2S)-4-(oxan-4-yl)-2-(trifluoromethyl)piperazin-1-yl]phenyl)prop-2-enamide] were 1 nM and “Irreversible/covalent inhibition”.
The corresponding values for `C=CC(=O)Nc1cc(Nc2nc(-c3ccnc(N4CCc5c(sc6c5CCCC6)C4=O)c3C)cn(C)c2=O)ccc1N1CCN(C2COC2)C[C@@H]1C` [Example 44, (S)—N-(2-(2-methyl-4-(oxetan-3-yl)piperazin-1-yl)-5-((4-methyl-6-(3-methyl-2-(1-oxo-3,4,5,6,7,8-hexahydrobenzo [4, 5]thieno [2,3-c]pyridin-2(1H)-yl)pyridin-4-yl)-3-oxo-3,4-dihydropyrazin-2-yl)amino)phenyl) acrylamide] are 0.98 nM and “Irreversible/covalent inhibition”.
Consider `C=CC(=O)Nc1cc(Nc2nc(-c3ccnc(N4CCc5c(sc6c5CCCC6)C4=O)c3C)cn(C)c2=O)ccc1N1CCN(C2CCOCC2)C[C@H]1C(F)(F)F` [Example 54-S, N-(5-[[4-methyl-6-(3-methyl-2-[6-oxo-8-thia-5-azatricyclo[7.4.0.0^[2,7]]trideca-1(9), 2(7)-dien-5-yl]pyridin-4-yl)-3-oxopyrazin-2-yl]amino]-2-[(2S)-4-(oxan-4-yl)-2-(trifluoromethyl)piperazin-1-yl]phenyl)prop-2-enamide], for which the half-maximal inhibitory concentration (IC50) in experiment [1] was determined as 4.4 nM. Further, in experiment [2], the “Conclusion (WT BTK)” value is recorded as “Irreversible/covalent inhibition”.
As for `C=CC(=O)Nc1cc(Nc2nc(-c3ccnc(N4CCc5c(sc6c5CC(C)(C)C6)C4=O)c3CO)cn(C)c2=O)ccc1N1CCN(C2COC2)C[C@@H]1C` [Example 34, N-(5-[[6-(2-[4,4-dimethyl-9-oxo-7-thia-10-azatricyclo[6.4.0.0^[2,6]]dodeca-1(8),2(6)-dien-10-yl]-3-(hydroxymethyl)pyridin-4-yl)-4-methyl-3-oxopyrazin-2-yl]amino]-2-[(2S)-2-methyl-4-(oxetan-3-yl)piperazin-1-yl]phenyl)prop-2-enamide], the concentration for half-maximal inhibition (IC50) in experiment [3] is 0.46 nM. In experiment [2], the “Conclusion (WT BTK)” value is “Irreversible/covalent inhibition”.
Take `C=CC(=O)Nc1cc(Nc2nc(-c3ccnc(N4CCn5c(cc6c5CC(C)(C)C6)C4=O)c3C)cn(C)c2=O)ccc1N1CCN(C2CCOCC2)C[C@@H]1C` [Example 40, N-(5-[[6-(2-[4,4-dimethyl-9-oxo-1,10-diazatricyclo[6.4.0.0^[2,6]]dodeca-2(6),7-dien-10-yl]-3-methylpyridin-4-yl)-4-methyl-3-oxopyrazin-2-yl]amino]-2-[(2S)-2-methyl-4-(oxan-4-yl)piperazin-1-yl]phenyl)prop-2-enamide]: the IC50 in experiment [1] was 0.083 nM. In experiment [2], the “Conclusion (WT BTK)” value is on record as “Irreversible/covalent inhibition”.
As to `C=CC(=O)Nc1cc(Nc2nc(-c3ccnc(N4CCn5c(cc6c5CC(C)(C)C6)C4=O)c3CO)cn(C)c2=O)ccc1N1CCN(C2CCOCC2)C[C@@H]1C(F)(F)F` [Example 48-R, N-(5-[[6-(2-[4,4-dimethyl-9-oxo-1,10-diazatricyclo[6.4.0.0^[2,6]]dodeca-2(6),7-dien-10-yl]-3-(hydroxymethyl)pyridin-4-yl)-4-methyl-3-oxopyrazin-2-yl]amino]-2-[(2R)-4-(oxan-4-yl)-2-(trifluoromethyl)piperazin-1-yl]phenyl)prop-2-enamide], in experiment [1], the half-inhibitory concentration (IC50) came to 0.065 nM. For the same compound, the “Conclusion (WT BTK)” value in experiment [2] is recorded as “Irreversible/covalent inhibition”.

The record behind these values is patent publication US20220363689A1, “INHIBITOR OF BTK AND MUTANTS THEREOF” (Newave Pharmaceutical Inc., priority 2019, published 2022).
